This is an account of results in publication PMC10298926, “Biophysical Characterization of the Binding Mechanism between the MATH Domain of SPOP and Its Physiological Partners” (International Journal of Molecular Sciences, 2023).

Assay [1] deals with T1, SPOP MATH WT (Homo sapiens, UniProt O43791). Kind of assay: Equilibrium binding, FRET (Trp to dansyl), fluorescence titration. The conditions noted are these: read-out: Equilibrium KD; dansylated peptide 0 to 40 µM; constant SPOP MATH WT (2 µM in methods, 1 µM in results); excitation 280 nm, emission 300-400 nm; 298 K; hyperbolic fit. The source says:
The MATH domain of SPOP exerts its functions by specifically recognizing different substrates and, therefore, acting as an adaptor module between SPOP and its physiological ligands. In an effort to provide a complete characterization of SPOP MATH binding mechanisms, we investigated the recognition of three peptides mimicking a specific region of the substrates Puc (region 96–105), MacroH2A (region 166–179), and PTEN (region 354–368). […] Moreover, the three-dimensional structure of SPOP MATH in complexes with each of the peptides has been previously reported (3HQH, 3HQL, and 4OV1 PDB entries, respectively). Similar to previous work on other protein–protein recognition modules, we employed peptides carrying a covalently attached N-terminal dansyl fluorophore. Binding was then followed by measuring the FRET (Forster resonance energy transfer) between the three tryptophan residues of the SPOP MATH domain (donor) and the dansyl group of the peptides (acceptor).
To address the equilibrium binding affinity of SPOP MATH and its substrates, a fixed concentration of the protein (1 µM) was challenged with increasing peptide concentrations. In all cases, the fluorescence-monitored transition returned a hyperbolic behavior as described in the Section 4, which allowed estimating a dissociation constant of 1.4 ± 0.4 µM, 1.6 ± 0.2 µM, and 5.5 ± 0.5 µM for Puc, MacroH2A, and PTEN, respectively (Figure 2). These values appear partly consistent with what was previously reported by Zhuang et al. by using surface plasmon resonance. […]
Equilibrium binding experiments were performed on a Fluoromax-4 single-photon-counting spectrofluorometer (Jobin-Yvon, Newark, NJ, USA). The SPOP MATH domain was excited at 280 nm and emission spectra were recorded between 300 and 400 nm, at increasing dansylated peptide concentrations. […]

The target of assay [2] is T2, SPOP MATH D131A (Homo sapiens, UniProt O43791, C159S/C23S/C44S/C68S/C93S/D130A).
T2 construct: engineered MATH domain of SPOP protein (residues 1–182); His-tag; made in house; host or cells: Escherichia coli BL21 (DE3)
T2 sequence (O43791 1-182 C23S/C44S/C68S/C93S/D130A/C159S): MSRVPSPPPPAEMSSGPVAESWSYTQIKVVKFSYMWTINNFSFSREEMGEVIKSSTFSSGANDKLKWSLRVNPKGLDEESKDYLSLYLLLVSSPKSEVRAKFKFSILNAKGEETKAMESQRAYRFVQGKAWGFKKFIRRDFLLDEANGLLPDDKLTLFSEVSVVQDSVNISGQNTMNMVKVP
Description: Stopped-flow displacement. It is filed as binding. The source says: (§1) To quantitatively address the role of specific residues in the binding mechanism of SPOP MATH, we resorted to taking advantage of the site-directed mutagenesis and generated ten site-directed mutants corresponding to the residues located in the binding pocket of the SPOP MATH domain. In particular, we produced a set of single mutants where residues R71, Y88, F103, Y124, F125, K130, D131, W132, F134, and K135 were substituted with alanine.
(§2) Microscopic dissociation rate constants (koff) were directly measured by performing displacement experiments on an Applied Photophysics DX-17MV stopped-flow apparatus (Applied Photophysics). A preincubated complex of MATH domain and dansylated peptides at a constant concentration (both 8 µM) was rapidly mixed with an excess of nondansylated peptides (50 μM). The samples were excited at 280 nm and fluorescence emission was collected by using a 330 ± 30 nm bandpass filter. The experiments were performed at 298 K in the same buffer used for the binding experiments. The observed rate constants were calculated from the average of five single traces. The observed kinetics were consistent with a single exponential decay.

For assay [3], the target named is T3, SPOP MATH K130A (Homo sapiens, UniProt O43791, C159S/C23S/C44S/C68S/C93S/K129A).
T3 construct: engineered MATH domain of SPOP protein (residues 1–182); His-tag; made in house; host or cells: Escherichia coli BL21 (DE3)
T3 sequence (O43791 1-182 C23S/C44S/C68S/C93S/K129A/C159S): as the sequence (O43791 1-182 C23S/C44S/C68S/C93S/D130A/C159S) above, with K129A, A130D counted along it
Kind of assay: Stopped-flow displacement. Type of assay: binding.
From the text: as §1, §2

Assay [4] addresses T4, SPOP MATH K135A (Homo sapiens, UniProt O43791, C159S/C44S/C68S/C93S/K134A).
T4 construct: engineered MATH domain of SPOP protein (residues 1–182); His-tag; made in house; host or cells: Escherichia coli BL21 (DE3)
Description: Stopped-flow displacement. Type of assay: binding. The conditions noted are these: displacement of dansylated Puc, 298 K.
From the text: as §1, §2

Assay [5] concerns the target SPOP MATH Y125A (Homo sapiens, UniProt O43791, Y123A, form not given). Kind of assay: Stopped-flow displacement. Type of assay: binding. Particulars: displacement of dansylated Puc, 298 K.
From the text: as §1, §2

Assay [6] has as its target T1, SPOP MATH WT. Description: Stopped-flow displacement. It is filed as binding. Particulars: preincubated complex (both 8 µM) mixed with 50 μM nondansylated peptide, 298 K, average of five single traces. The procedure:
To infer the mechanism of recognition of SPOP MATH, we resorted to performing time-resolved kinetic experiments. SPOP MATH was rapidly mixed with increasing concentrations of dansylated peptides (from 2 to 10 µM for Puc and MacroH2A, and from 2 to 40 µM for PTEN) in a stopped-flow apparatus at 298 K. The binding traces obtained by monitoring the time-resolved fluorescence were satisfactorily fitted to a single exponential equation, allowing calculating the observed rate constants kobs at different peptide concentrations. We then plotted the kobs values over the concentration of dansylated peptide and fitted the data to a simple linear function equation: kobs=kon Peptide+koff where kobs is the observed rate constant; kon and koff are the microscopic association and dissociation rate constants, respectively (Figure 2). The slope and y-axis intercept represent the microscopic association and dissociation rate constant, respectively. To minimize the error associated with the indirect measurement of the dissociation rate constant, we carried out displacement experiments to determine the koff values. The displacement experiments were designed by mixing the preformed complex SPOP MATH-dansylated peptides with a high excess of nondansylated peptide, as described in the Section 4. […] On the basis of these observations, it is possible to conclude that, in the case of binding to MacroH2A and PTEN, there is the presence of an additional step, which escapes detection by stopped-flow experiments and is likely to be negligible in the case of Puc. […] We note that such a case closely resembles the presence of a so-called burst phase, which is frequently observed in protein-folding studies.
Microscopic dissociation rate constants (koff) were directly measured by performing displacement experiments on an Applied Photophysics DX-17MV stopped-flow apparatus (Applied Photophysics). […] The samples were excited at 280 nm and fluorescence emission was collected by using a 330 ± 30 nm bandpass filter. […] The observed rate constants were calculated from the average of five single traces. […]

Where a SMILES comes first, the peptide text is derived from it.

T1 sequence (O43791 1-182): as the sequence (O43791 1-182 C23S/C44S/C68S/C93S/D130A/C159S) above, with S23C, S44C, S68C, S93C, A130D, S159C counted along it
T4 sequence (O43791 1-182 C44S/C68S/C93S/K134A/C159S): as the sequence (O43791 1-182 C23S/C44S/C68S/C93S/D130A/C159S) above, with S23C, A130D, K134A counted along it
SPOP MATH Y125A, sequence (O43791 1-182 Y123A, form open): as the sequence (O43791 1-182 C23S/C44S/C68S/C93S/D130A/C159S) above, with S23C, S44C, S68C, S93C, Y123A, A130D, S159C counted along it

On to `CC(C)[C@H](NC(=O)[C@H](CCC(=O)O)NC(=O)[C@H](CC(=O)O)NS(=O)(=O)c1cccc2c(N(C)C)cccc12)C(=O)N[C@H](C(=O)N[C@@H](CO)C(=O)N[C@H](C(=O)N[C@H](C(=O)N[C@@H](CO)C(=O)N[C@@H](CO)C(=O)N[C@@H](CO)C(=O)O)[C@@H](C)O)[C@@H](C)O)[C@@H](C)O` [Puc] (HELM PEPTIDE1{[CN(C)c1cccc2c(S(=O)(=O)[*:2])cccc12].D.E.V.T.S.T.T.S.S.S}$$$$V2.0), for which the Kd in assay [1] stood at 1.4 ± 0.5 µM. Besides, the koff is 241 ± 1 s⁻¹ in assay [2]; 123 ± 16 s⁻¹ in assay [3]; 45.2 ± 0.4 s⁻¹ in assay [4]; 78.0 ± 0.2 s⁻¹ in assay [5]; 26.1 ± 0.1 s⁻¹ in assay [6].

By Kd is commonly meant the concentration at which binding is half-saturated. By koff is commonly meant the first-order rate constant of dissociation.
